Laboratory results: patent US8017786B2, “Substituted β-phenyl-α-hydroxy-propanoic acid, synthesis method and use thereof” (Northwest University, priority 2006, dated 2011)

System: anesthetized rats
Experiment: Blood pressure and left ventricular function of anesthetized rats
Format: in vivo, rat
Parameters: contractive pressure, change ratio: unit not given here
Settings: for change-rate of left intraventricular pressure MAX / change-rate of left intraventricular pressure MAX, change ratio / change-rate of left intraventricular pressure, -MAX / change-rate of left intraventricular pressure, -MAX, change ratio / contractive pressure / contractive pressure, change ratio / diastolic pressure / diastolic pressure, change ratio / heart rate / heart rate, change ratio / left intraventricular pressure / left intraventricular pressure, change ratio / mean arterial pressure / mean arterial pressure, change ratio: 4.5 mg/kg duodenal
Protocol: All data were input into PowerLab/8Sp data acquisition and processing system via RM-6000 multi-channel polygraph, and recorded, analyzed and processed by PowerLab/8Sp.
The abdomen was opened 1.5 cm below xiphoid bone to isolate duodenum, a small incision was formed on the duodenum away from blood vessels by ophthalmic scissors, a catheter was inserted and the incision was fixed by suture for administration. After the end of operation and a further waiting period of 30 min, normal data were recorded once the indexes to be monitored were stable.
Test drugs were duodenally administered via the catheter, and the indexes were monitored 5, 15, 30, 60, 90 and 120 min after the administration. The change ratios of the indexes were calculated in accordance with the following formula, and were used for statistic analysis among groups.

CC1(C)C2CCC1(C)C(OC(=O)C(O)Cc1ccc(O)c(O)c1)C2 (stereo not drawn) [bornyl salvianate ester, bornyl β-(3,4-dihydroxylphenyl)-α-hydroxylpropionate ester]
mean arterial pressure, systolic pressure and diastolic pressure (in words) (4.5 mg/kg): exhibited no significant change | change-rate of left intraventricular pressure MAX (5 min after administration): 5429.3 ± 1279.7 mmHg/s | change-rate of left intraventricular pressure MAX, change ratio (5 min after administration): 0.4 ± 11.0 | change-rate of left intraventricular pressure, -MAX (5 min after administration): −4152.9 ± 764.8 mm/Hg/s | change-rate of left intraventricular pressure, -MAX, change ratio (5 min after administration): −2.2 ± 8.2 | contractive pressure (5 min after administration): 126.54 ± 25.94 mmHg | contractive pressure, change ratio (5 min after administration): −1.96 ± 11.16 | diastolic pressure (5 min after administration): 68.68 ± 15.82 mmHg | diastolic pressure, change ratio (5 min after administration): −0.08 ± 12.81 | heart rate (5 min after administration): 337.41 ± 47.67 beat/min | heart rate, change ratio (5 min after administration): 2.49 ± 7.18 | left intraventricular pressure (5 min after administration): 128.67 ± 18.24 mmHg | left intraventricular pressure, change ratio (5 min after administration): 0.38 ± 6.72 | mean arterial pressure (5 min after administration): 87.97 ± 18.89 mmHg | mean arterial pressure, change ratio (5 min after administration): −1.01 ± 11.95 | change-rate of left intraventricular pressure MAX (15 min after administration): 5435.9 ± 1216.6 mmHg/s | change-rate of left intraventricular pressure MAX, change ratio (15 min after administration): 0.9 ± 11.4 | change-rate of left intraventricular pressure, -MAX (15 min after administration): −4141.1 ± 755.6 mm/Hg/s | change-rate of left intraventricular pressure, -MAX, change ratio (15 min after administration): −2.4 ± 9.1 | contractive pressure (15 min after administration): 128.80 ± 24.39 mmHg | contractive pressure, change ratio (15 min after administration): −0.05 ± 10.13 | diastolic pressure (15 min after administration): 70.87 ± 15.08 mmHg | diastolic pressure, change ratio (15 min after administration): 3.38 ± 12.17 | heart rate (15 min after administration): 347.56 ± 47.18 beat/min | heart rate, change ratio (15 min after administration): 5.67 ± 7.58 | left intraventricular pressure (15 min after administration): 130.13 ± 18.12 mmHg | left intraventricular pressure, change ratio (15 min after administration): 1.51 ± 6.25 | mean arterial pressure (15 min after administration): 90.18 ± 17.91 mmHg | mean arterial pressure, change ratio (15 min after administration): 1.66 ± 11.07 | change-rate of left intraventricular pressure MAX (30 min after administration): 5408.8 ± 1352.2 mmHg/s | change-rate of left intraventricular pressure MAX, change ratio (30 min after administration): 0.1 ± 13.5 | change-rate of left intraventricular pressure, -MAX (30 min after administration): −4090.5 ± 704.6 mm/Hg/s | change-rate of left intraventricular pressure, -MAX, change ratio (30 min after administration): −3.6 ± 6.5 | contractive pressure (30 min after administration): 129.90 ± 23.86 mmHg | contractive pressure, change ratio (30 min after administration): 0.93 ± 11.47 | diastolic pressure (30 min after administration): 71.78 ± 15.67 mmHg | diastolic pressure, change ratio (30 min after administration): 4.78 ± 14.39 | heart rate (30 min after administration): 348.91 ± 52.11 beat/min | heart rate, change ratio (30 min after administration): 5.97 ± 9.72 | left intraventricular pressure (30 min after administration): 129.67 ± 17.48 mmHg | left intraventricular pressure, change ratio (30 min after administration): 1.22 ± 7.07 | mean arterial pressure (30 min after administration): 91.15 ± 17.95 mmHg | mean arterial pressure, change ratio (30 min after administration): 2.91 ± 12.81 | change-rate of left intraventricular pressure MAX (60 min after administration): 5760.1 ± 1393.5 mmHg/s | change-rate of left intraventricular pressure MAX, change ratio (60 min after administration): 7.1 ± 18.3 | change-rate of left intraventricular pressure, -MAX (60 min after administration): −4146.8 ± 820.5 mm/Hg/s | change-rate of left intraventricular pressure, -MAX, change ratio (60 min after administration): −2.4 ± 10.2 | contractive pressure (60 min after administration): 135.97 ± 22.80 mmHg | contractive pressure, change ratio (60 min after administration): 5.64 ± 8.91 | diastolic pressure (60 min after administration): 76.78 ± 14.34 mmHg | diastolic pressure, change ratio (60 min after administration): 12.13 ± 9.39 | heart rate (60 min after administration): 365.43 ± 32.77 beat/min | heart rate, change ratio (60 min after administration): 12.05 ± 12.32 | left intraventricular pressure (60 min after administration): 134.39 ± 19.12 mmHg | left intraventricular pressure, change ratio (60 min after administration): 4.73 ± 6.55 | mean arterial pressure (60 min after administration): 96.51 ± 16.69 mmHg | mean arterial pressure, change ratio (60 min after administration): 8.95 ± 8.95 | change-rate of left intraventricular pressure MAX (90 min after administration): 5706.1 ± 1390.6 mmHg/s | change-rate of left intraventricular pressure MAX, change ratio (90 min after administration): 7.6 ± 26.1 | change-rate of left intraventricular pressure, -MAX (90 min after administration): −4156.0 ± 947.7 mm/Hg/s | change-rate of left intraventricular pressure, -MAX, change ratio (90 min after administration): −2.2 ± 15.9 | contractive pressure (90 min after administration): 131.95 ± 25.10 mmHg | contractive pressure, change ratio (90 min after administration): 2.56 ± 13.11 | diastolic pressure (90 min after administration): 74.71 ± 18.13 mmHg | diastolic pressure, change ratio (90 min after administration): 8.47 ± 17.66 | heart rate (90 min after administration): 369.71 ± 35.54 beat/min | heart rate, change ratio (90 min after administration): 13.31 ± 13.05 | left intraventricular pressure (90 min after administration): 130.91 ± 17.22 mmHg | left intraventricular pressure, change ratio (90 min after administration): 2.39 ± 9.41 | mean arterial pressure (90 min after administration): 93.79 ± 20.11 mmHg
